Assay: xn = mol fraction of the nth substance listed
Conditions: Liquid, Vibrating tube method

CCCCCCCCCC [decane] + CCO
Conditions	mass density [kg/m3]
342.86 K, 16000 kPa, x2 = 0.7526	727.54
342.86 K, 16000 kPa, x2 = 0.9014	742.82
342.86 K, 17000 kPa, x2 = 0.7526	728.5
342.86 K, 17000 kPa, x2 = 0.9014	743.79
342.86 K, 18000 kPa, x2 = 0.7526	729.43
342.86 K, 18000 kPa, x2 = 0.9014	744.74
342.86 K, 19000 kPa, x2 = 0.7526	730.35
342.86 K, 19000 kPa, x2 = 0.9014	745.67
342.86 K, 20000 kPa, x2 = 0.7526	731.26
342.86 K, 20000 kPa, x2 = 0.9014	746.59
342.93 K, 1000 kPa, x2 = 0.2507	693.16
342.93 K, 2000 kPa, x2 = 0.2507	694.23
342.93 K, 3000 kPa, x2 = 0.2507	695.28
342.93 K, 4000 kPa, x2 = 0.2507	696.32
342.93 K, 5000 kPa, x2 = 0.2507	697.34
342.93 K, 6000 kPa, x2 = 0.2507	698.35
342.93 K, 7000 kPa, x2 = 0.2507	699.37
342.93 K, 8000 kPa, x2 = 0.2507	700.38
342.93 K, 9000 kPa, x2 = 0.2507	701.37
342.93 K, 10000 kPa, x2 = 0.2507	702.36
342.93 K, 11000 kPa, x2 = 0.2507	703.34
342.93 K, 12000 kPa, x2 = 0.2507	704.32
342.93 K, 13000 kPa, x2 = 0.2507	705.28
342.93 K, 14000 kPa, x2 = 0.2507	706.23
342.93 K, 15000 kPa, x2 = 0.2507	707.16
342.93 K, 16000 kPa, x2 = 0.2507	708.07
342.93 K, 17000 kPa, x2 = 0.2507	708.97
342.93 K, 18000 kPa, x2 = 0.2507	709.85
342.93 K, 19000 kPa, x2 = 0.2507	710.72
342.93 K, 20000 kPa, x2 = 0.2507	711.57
352.68 K, 1000 kPa, x2 = 0.9014	717.22
352.68 K, 2000 kPa, x2 = 0.9014	718.43
352.68 K, 3000 kPa, x2 = 0.9014	719.64
352.68 K, 4000 kPa, x2 = 0.9014	720.84
352.68 K, 5000 kPa, x2 = 0.9014	722.04
352.68 K, 6000 kPa, x2 = 0.9014	723.23
352.68 K, 7000 kPa, x2 = 0.9014	724.41
352.68 K, 8000 kPa, x2 = 0.9014	725.57
352.68 K, 9000 kPa, x2 = 0.9014	726.72
352.68 K, 10000 kPa, x2 = 0.9014	727.86
352.68 K, 11000 kPa, x2 = 0.9014	728.99
352.68 K, 12000 kPa, x2 = 0.9014	730.09
352.68 K, 13000 kPa, x2 = 0.9014	731.17
352.68 K, 14000 kPa, x2 = 0.9014	732.26
352.68 K, 15000 kPa, x2 = 0.9014	733.32
352.68 K, 16000 kPa, x2 = 0.9014	734.36
352.68 K, 17000 kPa, x2 = 0.9014	735.39
352.68 K, 18000 kPa, x2 = 0.9014	736.4
352.68 K, 19000 kPa, x2 = 0.9014	737.39
352.68 K, 20000 kPa, x2 = 0.9014	738.36
352.69 K, 1000 kPa, x2 = 0.0937	683.22
352.69 K, 1000 kPa, x2 = 0.4963	689.92
352.69 K, 2000 kPa, x2 = 0.0937	684.34
352.69 K, 2000 kPa, x2 = 0.4963	691.07
352.69 K, 3000 kPa, x2 = 0.0937	685.44
352.69 K, 3000 kPa, x2 = 0.4963	692.22
352.69 K, 4000 kPa, x2 = 0.0937	686.53
352.69 K, 4000 kPa, x2 = 0.4963	693.37
352.69 K, 5000 kPa, x2 = 0.0937	687.61
352.69 K, 5000 kPa, x2 = 0.4963	694.5
352.69 K, 6000 kPa, x2 = 0.0937	688.68
352.69 K, 6000 kPa, x2 = 0.4963	695.63
352.69 K, 7000 kPa, x2 = 0.0937	689.74
352.69 K, 7000 kPa, x2 = 0.4963	696.75
352.69 K, 8000 kPa, x2 = 0.0937	690.8
352.69 K, 8000 kPa, x2 = 0.4963	697.86
352.69 K, 9000 kPa, x2 = 0.0937	691.83
352.69 K, 9000 kPa, x2 = 0.4963	698.96
352.69 K, 10000 kPa, x2 = 0.0937	692.86
352.69 K, 10000 kPa, x2 = 0.4963	700.06
352.69 K, 11000 kPa, x2 = 0.0937	693.89
352.69 K, 11000 kPa, x2 = 0.4963	701.13
352.69 K, 12000 kPa, x2 = 0.0937	694.89
352.69 K, 12000 kPa, x2 = 0.4963	702.2
352.69 K, 13000 kPa, x2 = 0.0937	695.89
352.69 K, 13000 kPa, x2 = 0.4963	703.25
352.69 K, 14000 kPa, x2 = 0.0937	696.87
352.69 K, 14000 kPa, x2 = 0.4963	704.28
352.69 K, 15000 kPa, x2 = 0.0937	697.83
352.69 K, 15000 kPa, x2 = 0.4963	705.29
352.69 K, 16000 kPa, x2 = 0.0937	698.77
352.69 K, 16000 kPa, x2 = 0.4963	706.29
352.69 K, 17000 kPa, x2 = 0.0937	699.71
352.69 K, 17000 kPa, x2 = 0.4963	707.26
352.69 K, 18000 kPa, x2 = 0.0937	700.63
352.69 K, 18000 kPa, x2 = 0.4963	708.23
352.69 K, 19000 kPa, x2 = 0.0937	701.52
352.69 K, 19000 kPa, x2 = 0.4963	709.17
352.69 K, 20000 kPa, x2 = 0.0937	702.39
352.69 K, 20000 kPa, x2 = 0.4963	710.11
